Laboratory results as given in article doi:10.1101/2024.08.19.608619, “Discovery of potent SARS-CoV-2 nsp3 macrodomain inhibitors uncovers lack of translation to cellular antiviral response” (bioRxiv, 2024).
Like-named read-outs stand apart in the source and are kept apart here.

Tests used:
Assay in all cases: biochemical
Set-up in all cases: In vitro kinase panel profiling, per cent remaining kinase activity at 10 uM
EGFR(h) = EGFR(h) (Homo sapiens, UniProt P00533); settings: atp_concentration=10, read-out: % of control remaining
Text: (§1) We derisk potential for off-target activity by profiling the compound in a CEREP panel, a standard secondary pharmacology assessment, as well as a kinase panel to derisk a potential hinge-binding motif in our leads, and a PARP panel to derisk activity against human […]. Reassuringly, the compounds are selective, with the only off-targets being moderate human CHRM2 and KOR receptors activity associated with ASAP-0011198.

MLK1(h) = biological target: T1, MLK1(h) (Homo sapiens, UniProt P80192); settings: atp_concentration=45, read-out: % of control remaining
T1 construct: gene MAP3K9
T1 sequence (P80192 whole entry): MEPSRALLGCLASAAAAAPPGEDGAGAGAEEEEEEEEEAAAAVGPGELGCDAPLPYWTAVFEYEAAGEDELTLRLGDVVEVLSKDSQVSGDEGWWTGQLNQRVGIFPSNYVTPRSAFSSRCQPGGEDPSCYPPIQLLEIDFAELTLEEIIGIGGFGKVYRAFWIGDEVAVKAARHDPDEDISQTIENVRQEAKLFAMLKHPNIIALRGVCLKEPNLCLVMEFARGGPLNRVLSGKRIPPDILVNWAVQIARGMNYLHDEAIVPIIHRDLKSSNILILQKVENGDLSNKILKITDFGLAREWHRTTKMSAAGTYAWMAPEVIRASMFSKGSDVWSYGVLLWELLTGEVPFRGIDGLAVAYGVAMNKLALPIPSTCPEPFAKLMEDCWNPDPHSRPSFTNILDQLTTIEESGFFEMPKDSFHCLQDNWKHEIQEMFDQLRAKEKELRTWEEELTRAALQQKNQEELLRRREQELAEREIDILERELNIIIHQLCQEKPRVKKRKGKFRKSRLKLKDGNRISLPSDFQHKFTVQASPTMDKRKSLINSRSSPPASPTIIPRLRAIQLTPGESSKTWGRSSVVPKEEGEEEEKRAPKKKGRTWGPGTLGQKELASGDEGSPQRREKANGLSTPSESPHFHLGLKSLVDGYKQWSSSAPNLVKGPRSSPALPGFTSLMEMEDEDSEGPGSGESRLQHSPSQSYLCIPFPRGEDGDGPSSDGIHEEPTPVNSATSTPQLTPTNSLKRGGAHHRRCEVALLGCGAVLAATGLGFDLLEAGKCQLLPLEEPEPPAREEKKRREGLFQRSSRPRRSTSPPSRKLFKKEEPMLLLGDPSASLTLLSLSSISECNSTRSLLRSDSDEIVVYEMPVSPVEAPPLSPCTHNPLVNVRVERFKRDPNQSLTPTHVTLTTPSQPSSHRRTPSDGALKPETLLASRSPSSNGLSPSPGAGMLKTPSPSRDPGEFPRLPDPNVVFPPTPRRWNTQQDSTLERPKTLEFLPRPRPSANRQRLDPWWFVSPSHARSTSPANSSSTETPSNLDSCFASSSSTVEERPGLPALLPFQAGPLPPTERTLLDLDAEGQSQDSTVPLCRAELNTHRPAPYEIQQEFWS
Text: as §1

AMPKα1(h) = biological target: T2, AMPKα1(h) (Homo sapiens, UniProt Q13131); settings: atp_concentration=45, read-out: % of control remaining
T2 construct: gene PRKAA1
T2 sequence (Q13131 whole entry): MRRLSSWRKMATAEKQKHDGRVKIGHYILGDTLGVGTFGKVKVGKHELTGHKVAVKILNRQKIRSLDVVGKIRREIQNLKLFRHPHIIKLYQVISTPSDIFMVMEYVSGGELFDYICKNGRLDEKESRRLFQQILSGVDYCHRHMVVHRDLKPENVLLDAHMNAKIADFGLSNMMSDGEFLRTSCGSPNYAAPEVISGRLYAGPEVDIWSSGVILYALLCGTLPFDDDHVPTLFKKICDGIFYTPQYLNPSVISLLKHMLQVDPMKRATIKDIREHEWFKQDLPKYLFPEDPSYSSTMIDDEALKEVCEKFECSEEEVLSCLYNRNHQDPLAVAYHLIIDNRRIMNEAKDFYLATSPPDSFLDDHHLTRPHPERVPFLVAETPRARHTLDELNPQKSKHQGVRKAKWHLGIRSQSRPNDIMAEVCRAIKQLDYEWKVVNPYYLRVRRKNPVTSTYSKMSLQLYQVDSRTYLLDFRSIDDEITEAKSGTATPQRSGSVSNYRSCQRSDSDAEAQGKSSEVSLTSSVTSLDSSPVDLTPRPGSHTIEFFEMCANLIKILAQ
T2 sequence (P54619 whole entry partner): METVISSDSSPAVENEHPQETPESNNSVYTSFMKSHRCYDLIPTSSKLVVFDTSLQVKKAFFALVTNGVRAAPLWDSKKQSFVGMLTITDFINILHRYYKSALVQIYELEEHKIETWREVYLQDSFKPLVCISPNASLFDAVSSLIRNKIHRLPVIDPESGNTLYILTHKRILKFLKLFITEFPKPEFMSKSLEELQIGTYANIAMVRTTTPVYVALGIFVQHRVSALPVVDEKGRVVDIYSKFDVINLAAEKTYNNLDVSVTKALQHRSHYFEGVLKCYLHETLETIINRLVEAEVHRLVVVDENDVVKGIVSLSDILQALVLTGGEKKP
T2 sequence (Q9Y478 whole entry partner): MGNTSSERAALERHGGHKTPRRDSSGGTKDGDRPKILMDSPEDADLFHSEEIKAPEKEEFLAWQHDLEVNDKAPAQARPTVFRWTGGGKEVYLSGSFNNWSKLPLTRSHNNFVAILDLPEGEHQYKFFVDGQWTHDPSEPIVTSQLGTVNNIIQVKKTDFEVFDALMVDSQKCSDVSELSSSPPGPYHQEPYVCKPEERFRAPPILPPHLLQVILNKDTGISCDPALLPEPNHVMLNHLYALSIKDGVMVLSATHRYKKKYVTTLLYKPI
Text: as §1

KDR(h) = KDR(h) (Homo sapiens, UniProt P35968); settings: atp_concentration=90, read-out: % of control remaining
Chain of KDR(h) (P35968 whole entry): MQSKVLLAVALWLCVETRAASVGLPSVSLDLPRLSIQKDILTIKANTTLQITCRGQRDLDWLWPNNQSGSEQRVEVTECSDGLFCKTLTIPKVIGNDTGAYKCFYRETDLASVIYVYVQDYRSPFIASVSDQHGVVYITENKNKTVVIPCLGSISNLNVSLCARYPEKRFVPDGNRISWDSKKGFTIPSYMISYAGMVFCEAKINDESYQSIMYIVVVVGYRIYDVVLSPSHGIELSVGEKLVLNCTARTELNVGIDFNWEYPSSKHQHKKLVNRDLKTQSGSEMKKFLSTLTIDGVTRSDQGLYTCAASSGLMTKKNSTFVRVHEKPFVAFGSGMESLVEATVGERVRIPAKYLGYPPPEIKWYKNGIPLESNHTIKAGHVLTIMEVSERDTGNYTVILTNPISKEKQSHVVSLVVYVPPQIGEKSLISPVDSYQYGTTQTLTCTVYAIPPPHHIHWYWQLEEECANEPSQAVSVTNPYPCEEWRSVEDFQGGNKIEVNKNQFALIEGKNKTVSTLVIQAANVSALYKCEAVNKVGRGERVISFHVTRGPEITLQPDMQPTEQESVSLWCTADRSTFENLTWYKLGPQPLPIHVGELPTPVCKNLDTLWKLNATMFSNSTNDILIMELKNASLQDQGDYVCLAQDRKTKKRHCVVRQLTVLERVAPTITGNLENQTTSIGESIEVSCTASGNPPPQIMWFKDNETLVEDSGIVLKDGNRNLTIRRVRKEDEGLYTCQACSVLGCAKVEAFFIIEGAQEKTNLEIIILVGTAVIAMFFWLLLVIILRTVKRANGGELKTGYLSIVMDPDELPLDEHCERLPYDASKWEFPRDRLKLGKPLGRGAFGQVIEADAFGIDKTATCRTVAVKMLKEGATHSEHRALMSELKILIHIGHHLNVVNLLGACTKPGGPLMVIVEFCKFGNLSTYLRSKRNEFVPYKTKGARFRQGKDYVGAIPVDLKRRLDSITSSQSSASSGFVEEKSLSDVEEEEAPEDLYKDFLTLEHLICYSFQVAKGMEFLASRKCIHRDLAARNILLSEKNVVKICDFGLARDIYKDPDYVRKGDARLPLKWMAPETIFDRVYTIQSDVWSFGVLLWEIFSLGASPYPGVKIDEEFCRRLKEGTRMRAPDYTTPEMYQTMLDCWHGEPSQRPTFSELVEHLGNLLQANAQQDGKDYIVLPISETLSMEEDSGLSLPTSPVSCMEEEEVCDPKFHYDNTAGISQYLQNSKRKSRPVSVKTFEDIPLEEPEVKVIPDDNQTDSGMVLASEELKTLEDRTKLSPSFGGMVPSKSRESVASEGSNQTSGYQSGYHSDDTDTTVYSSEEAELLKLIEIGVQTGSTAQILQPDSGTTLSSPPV
Text: as §1

Rsk1(h) = biological target: T3, Rsk1(h) (Homo sapiens, UniProt Q15418); settings: atp_concentration=45, read-out: % of control remaining
T3 construct: gene RPS6KA1
T3 sequence (Q15418 whole entry): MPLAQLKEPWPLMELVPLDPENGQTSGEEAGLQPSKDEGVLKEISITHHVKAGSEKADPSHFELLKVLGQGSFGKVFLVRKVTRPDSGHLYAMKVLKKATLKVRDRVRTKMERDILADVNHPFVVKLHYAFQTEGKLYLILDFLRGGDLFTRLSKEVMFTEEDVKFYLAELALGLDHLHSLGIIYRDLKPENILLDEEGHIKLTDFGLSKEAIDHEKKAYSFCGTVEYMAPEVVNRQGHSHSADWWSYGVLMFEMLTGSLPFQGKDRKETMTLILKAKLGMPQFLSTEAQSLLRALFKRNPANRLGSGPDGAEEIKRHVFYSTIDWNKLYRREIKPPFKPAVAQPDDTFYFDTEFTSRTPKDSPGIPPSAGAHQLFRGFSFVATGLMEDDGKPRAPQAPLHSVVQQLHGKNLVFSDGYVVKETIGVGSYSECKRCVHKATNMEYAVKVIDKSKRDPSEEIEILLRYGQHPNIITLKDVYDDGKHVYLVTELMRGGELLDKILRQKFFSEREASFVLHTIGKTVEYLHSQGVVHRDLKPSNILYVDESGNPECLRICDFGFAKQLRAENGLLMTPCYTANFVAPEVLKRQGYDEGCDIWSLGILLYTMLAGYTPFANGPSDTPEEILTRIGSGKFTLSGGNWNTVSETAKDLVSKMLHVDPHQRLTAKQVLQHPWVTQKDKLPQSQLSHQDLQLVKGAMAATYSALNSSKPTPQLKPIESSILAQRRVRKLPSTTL
Text: as §1

IRAK4(h) = biological target: T4, IRAK4(h) (Homo sapiens, UniProt Q9NWZ3); settings: atp_concentration=200, read-out: % of control remaining
T4 sequence (Q9NWZ3 1-460): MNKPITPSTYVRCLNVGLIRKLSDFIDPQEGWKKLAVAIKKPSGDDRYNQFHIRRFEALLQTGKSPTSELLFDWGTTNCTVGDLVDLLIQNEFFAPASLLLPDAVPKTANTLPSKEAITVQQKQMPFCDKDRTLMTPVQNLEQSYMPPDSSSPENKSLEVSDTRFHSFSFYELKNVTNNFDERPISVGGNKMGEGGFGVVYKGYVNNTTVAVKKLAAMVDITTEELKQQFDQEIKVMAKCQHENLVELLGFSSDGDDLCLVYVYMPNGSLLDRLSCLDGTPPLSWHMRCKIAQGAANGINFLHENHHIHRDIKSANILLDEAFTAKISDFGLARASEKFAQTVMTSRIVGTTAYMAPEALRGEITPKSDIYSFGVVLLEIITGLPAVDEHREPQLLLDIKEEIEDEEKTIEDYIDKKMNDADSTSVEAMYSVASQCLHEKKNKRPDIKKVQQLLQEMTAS
Text: as §1

SRPK1(h) = SRPK1(h) (Homo sapiens, UniProt Q96SB4); settings: atp_concentration=10, read-out: % of control remaining
Chain of SRPK1(h) (Q96SB4 whole entry): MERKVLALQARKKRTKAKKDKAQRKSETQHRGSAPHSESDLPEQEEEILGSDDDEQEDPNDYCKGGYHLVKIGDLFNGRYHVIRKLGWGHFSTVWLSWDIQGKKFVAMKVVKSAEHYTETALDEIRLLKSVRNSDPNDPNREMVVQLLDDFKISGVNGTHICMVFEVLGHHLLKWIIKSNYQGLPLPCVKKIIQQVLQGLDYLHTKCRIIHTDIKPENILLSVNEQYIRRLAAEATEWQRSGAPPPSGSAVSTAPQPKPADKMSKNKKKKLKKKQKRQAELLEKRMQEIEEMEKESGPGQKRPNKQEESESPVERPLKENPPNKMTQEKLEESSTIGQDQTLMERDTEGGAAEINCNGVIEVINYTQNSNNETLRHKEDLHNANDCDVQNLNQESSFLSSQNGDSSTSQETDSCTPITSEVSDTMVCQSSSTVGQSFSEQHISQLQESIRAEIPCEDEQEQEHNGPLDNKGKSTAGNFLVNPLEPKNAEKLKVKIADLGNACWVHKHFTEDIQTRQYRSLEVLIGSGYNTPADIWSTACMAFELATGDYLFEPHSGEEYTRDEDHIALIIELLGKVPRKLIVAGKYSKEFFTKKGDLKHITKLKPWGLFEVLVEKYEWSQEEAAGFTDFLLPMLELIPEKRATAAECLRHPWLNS
Text: as §1

[1] = biological target: T5, PI3 Kinase (p110δ/p85α)(h) (Homo sapiens, UniProt O00329); settings: atp_concentration=200, read-out: % of control remaining
T5 construct: gene PIK3CD
Text: as §1

PAK2(h) = PAK2(h) (Homo sapiens, UniProt Q13177); settings: atp_concentration=90, read-out: % of control remaining
Text: as §1

mTOR(h) = mTOR(h) (Homo sapiens, UniProt P42345); settings: atp_concentration=70, read-out: % of control remaining
Text: as §1

IGF-1R(h) = biological target: T6, IGF-1R(h) (Homo sapiens, UniProt P08069); settings: atp_concentration=200, read-out: % of control remaining
T6 construct: gene IGF1R
Text: as §1

IKKα(h) = biological target: T7, IKKα(h) (Homo sapiens, UniProt O15111); settings: atp_concentration=10, read-out: % of control remaining
T7 construct: gene CHUK
T7 sequence (O15111 1-745): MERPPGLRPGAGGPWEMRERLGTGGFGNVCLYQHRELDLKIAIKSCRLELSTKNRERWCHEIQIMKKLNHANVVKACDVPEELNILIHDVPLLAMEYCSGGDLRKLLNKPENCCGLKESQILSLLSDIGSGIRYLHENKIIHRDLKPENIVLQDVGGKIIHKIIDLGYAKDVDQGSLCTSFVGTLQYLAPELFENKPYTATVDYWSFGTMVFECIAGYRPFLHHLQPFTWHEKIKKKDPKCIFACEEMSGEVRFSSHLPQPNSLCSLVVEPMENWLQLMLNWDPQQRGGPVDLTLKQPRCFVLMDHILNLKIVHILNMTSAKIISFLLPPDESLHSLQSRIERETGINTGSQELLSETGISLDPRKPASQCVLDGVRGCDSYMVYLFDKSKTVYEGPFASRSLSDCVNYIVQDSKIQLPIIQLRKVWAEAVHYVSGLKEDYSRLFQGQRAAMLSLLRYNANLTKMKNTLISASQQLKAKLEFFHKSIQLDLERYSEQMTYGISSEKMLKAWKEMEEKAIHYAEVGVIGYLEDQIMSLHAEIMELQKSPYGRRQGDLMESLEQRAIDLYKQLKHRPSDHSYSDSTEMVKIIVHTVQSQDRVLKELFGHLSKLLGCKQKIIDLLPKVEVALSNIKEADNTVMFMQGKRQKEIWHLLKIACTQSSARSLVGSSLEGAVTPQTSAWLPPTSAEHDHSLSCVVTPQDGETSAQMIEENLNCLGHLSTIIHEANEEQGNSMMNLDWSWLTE
Text: as §1

CK1γ1(h) = biological target: T8, CK1γ1(h) (Homo sapiens, UniProt Q9HCP0); settings: atp_concentration=15, read-out: % of control remaining
T8 construct: gene CSNK1G1
Text: as §1

JAK2(h) = JAK2(h) (Homo sapiens, UniProt O60674); settings: atp_concentration=45, read-out: % of control remaining
Text: as §1

SMILES: CC(C)[C@H](Nc1ncnc2[nH]ccc12)c1ccc2c(c1)S(=O)(=O)CCC2 [ASAP-0008674]
- remaining activity at 10 µM (EGFR(h); batch_name=ASAP-0008674-002): 95%
- remaining activity at 10 µM (MLK1(h); batch_name=ASAP-0008674-002): 84%
- remaining activity at 10 µM (AMPKα1(h); batch_name=ASAP-0008674-002): 104%
- remaining activity at 10 µM (KDR(h); batch_name=ASAP-0008674-002): 86%
- remaining activity at 10 µM (Rsk1(h); batch_name=ASAP-0008674-002): 102%
- remaining activity at 10 µM (IRAK4(h); batch_name=ASAP-0008674-002): 112%
- remaining activity at 10 µM (SRPK1(h); batch_name=ASAP-0008674-002): 100%
- remaining activity at 10 µM ([1]; batch_name=ASAP-0008674-002): 99%
- remaining activity at 10 µM (PAK2(h); batch_name=ASAP-0008674-002): 102%
- remaining activity at 10 µM (mTOR(h); batch_name=ASAP-0008674-002): 99%
- remaining activity at 10 µM (IGF-1R(h); batch_name=ASAP-0008674-002): 100%
- remaining activity at 10 µM (IKKα(h); batch_name=ASAP-0008674-002): 92%
- remaining activity at 10 µM (CK1γ1(h); batch_name=ASAP-0008674-002): 97%
- remaining activity at 10 µM (JAK2(h); batch_name=ASAP-0008674-002): 99%

SMILES: CC(C)[C@H](Nc1ncnc2[nH]c(-c3cnn(C)c3C#N)cc12)c1ccc2c(n1)OCCO2 [ASAP-0010715]
- remaining activity at 10 µM (EGFR(h); batch_name=ASAP-0010715-002): 90%
- remaining activity at 10 µM (MLK1(h); batch_name=ASAP-0010715-002): 73%
- remaining activity at 10 µM (AMPKα1(h); batch_name=ASAP-0010715-002): 111%
- remaining activity at 10 µM (KDR(h); batch_name=ASAP-0010715-002): 76%
- remaining activity at 10 µM (Rsk1(h); batch_name=ASAP-0010715-002): 120%
- remaining activity at 10 µM (IRAK4(h); batch_name=ASAP-0010715-002): 106%
- remaining activity at 10 µM (SRPK1(h); batch_name=ASAP-0010715-002): 111%
- remaining activity at 10 µM ([1]; batch_name=ASAP-0010715-002): 66%
- remaining activity at 10 µM (PAK2(h); batch_name=ASAP-0010715-002): 99%
- remaining activity at 10 µM (mTOR(h); batch_name=ASAP-0010715-002): 104%
- remaining activity at 10 µM (IGF-1R(h); batch_name=ASAP-0010715-002): 85%
- remaining activity at 10 µM (IKKα(h); batch_name=ASAP-0010715-002): 120%
- remaining activity at 10 µM (CK1γ1(h); batch_name=ASAP-0010715-002): 100%
- remaining activity at 10 µM (JAK2(h); batch_name=ASAP-0010715-002): 115%

SMILES: CC(C)[C@@H](Nc1ncnc2[nH]c(-c3cnn(C)c3C#N)cc12)c1ccc2c(n1)OCCO2 [ASAP-0010716]
- remaining activity at 10 µM (EGFR(h); batch_name=ASAP-0010716-002): 77%
- remaining activity at 10 µM (MLK1(h); batch_name=ASAP-0010716-002): 82%
- remaining activity at 10 µM (AMPKα1(h); batch_name=ASAP-0010716-002): 99%
- remaining activity at 10 µM (KDR(h); batch_name=ASAP-0010716-002): 86%
- remaining activity at 10 µM (Rsk1(h); batch_name=ASAP-0010716-002): 102%
- remaining activity at 10 µM (IRAK4(h); batch_name=ASAP-0010716-002): 99%
- remaining activity at 10 µM (SRPK1(h); batch_name=ASAP-0010716-002): 104%
- remaining activity at 10 µM ([1]; batch_name=ASAP-0010716-002): 61%
- remaining activity at 10 µM (PAK2(h); batch_name=ASAP-0010716-002): 99%
- remaining activity at 10 µM (mTOR(h); batch_name=ASAP-0010716-002): 102%
- remaining activity at 10 µM (IGF-1R(h); batch_name=ASAP-0010716-002): 94%
- remaining activity at 10 µM (IKKα(h); batch_name=ASAP-0010716-002): 104%
- remaining activity at 10 µM (CK1γ1(h); batch_name=ASAP-0010716-002): 99%
- remaining activity at 10 µM (JAK2(h); batch_name=ASAP-0010716-002): 123%
